Measurements: US10913714B2, “Pyrrole sulfonyl derivative, preparation method and medical use thereof” (JIANGSU CAREPHAR PHARMACEUTICAL CO., LTD, priority 2015, dated 2021)
Counter-ions that a name gives are not always drawn.

Molecular target: T1, H^+/K^+-ATPase (Oryctolagus cuniculus, UniProt P27112)
T1 construct: collecting the middle layer (H^+/K^+-ATPase enriched gastric membranes) into a clean centrifugal tube; from tissue; host or cells: rabbit stomach (gastric mucosal microsomes, sucrose/Ficoll gradient centrifugation)
T1 sequence (P27112 whole entry): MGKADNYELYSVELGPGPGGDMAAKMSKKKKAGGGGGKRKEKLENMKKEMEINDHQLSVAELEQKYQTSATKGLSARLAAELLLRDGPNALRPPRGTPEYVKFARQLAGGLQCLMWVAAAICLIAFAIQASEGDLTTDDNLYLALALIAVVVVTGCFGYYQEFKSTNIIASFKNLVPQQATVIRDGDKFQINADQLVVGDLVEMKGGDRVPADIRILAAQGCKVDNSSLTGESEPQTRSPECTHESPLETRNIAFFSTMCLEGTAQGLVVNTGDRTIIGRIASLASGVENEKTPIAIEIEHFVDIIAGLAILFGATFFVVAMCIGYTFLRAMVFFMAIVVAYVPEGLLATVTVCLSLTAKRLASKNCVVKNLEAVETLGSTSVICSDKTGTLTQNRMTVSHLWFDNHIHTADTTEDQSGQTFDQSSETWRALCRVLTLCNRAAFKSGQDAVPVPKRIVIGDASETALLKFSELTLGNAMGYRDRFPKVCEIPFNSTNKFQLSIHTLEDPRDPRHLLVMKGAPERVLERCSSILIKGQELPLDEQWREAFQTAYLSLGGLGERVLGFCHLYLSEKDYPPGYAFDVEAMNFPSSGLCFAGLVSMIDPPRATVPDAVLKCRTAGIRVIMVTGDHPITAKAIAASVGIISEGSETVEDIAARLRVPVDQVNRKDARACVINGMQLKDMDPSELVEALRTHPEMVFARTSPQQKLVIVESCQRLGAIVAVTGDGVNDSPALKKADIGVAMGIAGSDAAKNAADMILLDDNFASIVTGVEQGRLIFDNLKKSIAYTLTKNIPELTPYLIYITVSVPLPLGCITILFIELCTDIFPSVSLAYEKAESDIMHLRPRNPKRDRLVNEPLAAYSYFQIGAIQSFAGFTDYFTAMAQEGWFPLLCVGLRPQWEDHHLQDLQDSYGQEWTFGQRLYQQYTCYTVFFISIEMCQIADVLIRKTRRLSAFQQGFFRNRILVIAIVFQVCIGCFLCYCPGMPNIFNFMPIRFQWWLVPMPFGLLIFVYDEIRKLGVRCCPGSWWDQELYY
T1 sequence (P18597 whole entry partner): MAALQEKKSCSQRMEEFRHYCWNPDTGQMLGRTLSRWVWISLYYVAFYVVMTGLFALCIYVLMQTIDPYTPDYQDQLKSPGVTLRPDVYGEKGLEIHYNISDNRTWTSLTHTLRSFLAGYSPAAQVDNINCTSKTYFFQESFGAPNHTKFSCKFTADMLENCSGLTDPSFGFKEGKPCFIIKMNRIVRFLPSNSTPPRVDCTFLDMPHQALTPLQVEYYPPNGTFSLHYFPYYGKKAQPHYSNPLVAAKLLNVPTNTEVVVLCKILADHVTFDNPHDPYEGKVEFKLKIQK
Assay: Inhibition of H+/K+-ATPase enzymatic activity (rabbit gastric mucosal microsomes, malachite green)
Format: biochemical
Conditions: pH 6.5, 37° C. 30 min, read-out: The median inhibitory concentration (IC50) of the compound to the activity of H^+/K^+-ATPase
Source text: Biological Evaluation on H^+/K^+-ATPase
The following screening assays in vitro are used to evaluate the inhibiting effect of the compound of the Invention on the enzymatic activity of H^+/K^+-ATPase. Experimental materials and instruments are as follows:
1) Rabbit gastric mucosal microsomes (enriched H^+/K^+-ATPase; extracted by the Applicant)
2) Buffer solution: 50 mmol/L HEPEs-Tris, pH=6.5, 5 mmol/L magnesium chloride, 10 μmol/L valinomycin;
3) Buffer solution: 50 mmol/L HEPEs-Tris, pH=6.5, 5 mmol/L magnesium chloride, 10 μmol/L valinomycin, 5 mmol/L potassium chloride;
4) ATP: diluting ATP to 5 mM with buffer solution 1;
5) Malachite green solution: dissolving 0.12% of malachite green in 2.5 mol/L of sulfuric acid; mixing 7.5% (V/V) of ammonium molybdate and 11% of Tween 20(V/V) in a proportion of 100:25:2;
6) The method for extracting rabbit gastric mucosal microsomes (enriched H^+/K^+-ATPase) is sucrose gradient centrifugation, i.e., washing the rabbit stomach with tap water and 3M NaCl solution respectively and removing the surface moisture with filter paper; adding the pre-cooled buffer solution (4 ml/g tissue) for homogenation in a tissue homogenizer for 2-5 min; removing the large tissue particles in a way of centrifugation (600 g, 10 mm) if any after homogenation; transferring the supernatant to a clean centrifugal tube for centrifugation for 30 min at 2000 g; then transferring the supernatant to a clean centrifugal tube for further centrifugation for 90 min at 100000 g; collecting the sediment; suspending the sediment in the homogenate and blowing it to be uniform; measuring the protein concentration with Bradford method; adjusting the concentration to 10 mg/ml; adding 7.5% Ficoll demixing fluid in an equal proportion for centrifugation for 60 min at 100000 g; collecting the middle layer (H^+/K^+-ATPase enriched gastric membranes) into a clean centrifugal tube; diluting it with 4-5 times of homogenate for further centrifugation for 90 min at 100000 g; collecting the sediment; suspending the sediment in the homogenate for homogenation with a glass homogenizer; measuring the protein concentration with Bradford method and adjusting the concentration to 22.5 mg/ml; freezing it under −80° C. for standby. Experimental Process:
Adding 5 μL of gastric mucosal microsomes (H^+/K^+-ATPase) in 45 µL of buffer solution 2; adding 5 μL of the compound solution; adding 5 μL 5 mM of ATP to start the reaction for pre-reaction at 37° C. for 30 min; adding 15 μL of malachite green solution to terminate the reaction; balancing at ambient temperature for 20 min; reading the value of absorbed light at 620 nm.
Meanwhile, conducting another reaction with the same volume without potassium chloride for background, which will be subtracted when calculating the enzymatic activity.
The value of Compound IC50 is calculated through the inhibition ratios at different concentrations.

CNCc1cc(-c2ccccc2F)n(S(=O)(=O)c2cccnc2)c1 [TAK-438, 5-(2-fluorophenyl)-N-methyl-1-(3-pyridylsulfonyl)-1H-pyrrole-3-methamine fumarate]
IC50: < 100 nM

CNCc1cc(-c2ccccc2F)n(S(=O)(=O)c2cccc(OCCCOC)c2)c1 [EXP 1, 1-(5-(2-fluorobenzene)-1-((3-(3-methoxypropoxy)phenyl)sulfonyl)-1H-pyrrole-3-yl)-N-methyl methylamine]
IC50: < 100 nM
